Assay results taken from US20230141988A1, “PHARMACEUTICAL COMPOSITION FOR USE IN THE TREATMENT OF NEUROLOGICAL DISEASES” (Aclipse One Inc., priority 2020, published 2023).

Tests used:
in vivo [1] = test: in vivo
Experimental: Three non-naïve male beagle dogs supplied by Marshall Bioresources (Beijing, China) were used in this study. The animals were confirmed healthy before being assigned to the study. Each animal was given a unique identification number which was marked on ear and written on the cage card. The room(s) were controlled and monitored for relative humidity (targeted mean range 40% to 70%, and any excursion from this range for more than 3 hours will be documented as a deviation) and temperature (targeted mean range 18° C. to 26° C., and any excursion from this range will be documented as a deviation) with 10 to 20 air changes/hour. The rooms were on a 12-hour light/dark cycle except when interruptions are necessitated by study activities.
Animals were fed twice daily. Stock Dogs were fed approximately 220 grams of Certified Dog Diet daily (Beijing Keao Xieli Feed Co., Ltd. Beijing, P. R. China). These amounts could be adjusted as necessary based on food consumption of the group or an individual body weight change. For PO groups, animals were fed at 3:30 to 4:00 pm on the day prior to oral dosing and any remaining food was removed at 7:00 pm. Food was withheld until 4-hour post-dose. Animals were fed once on the day of dosing, with the amount of approximately 220 grams.
Three male non-naïve beagle dogs were assigned to this study. […] The detailed dosing and sampling regimens are described in the following two tables:
PO formulation preparations were processed in study facility on the day of dosing according to instructions provided by the sponsor. The concentrations of compounds in all dosing solutions were determined by HPLC/UV. Two aliquots were taken from each clear and three aliquots were taken from suspension formulations. All formulation samples were stored at 2-8° C. until analyzed by HPLC/UV. All dose formulation samples were analyzed in duplicate using HPLC/UV.
In plasma, approximately 0.5 mL blood was collected at each time point. All blood samples were collected from a peripheral vessel. All blood samples were transferred into commercially available tubes containing Potassium (K2) EDTA on wet ice and processed for plasma. Samples were centrifuged (3,000×g for 10 minutes at 2 to 8° C.) within 30 minutes of collection. After centrifugation, the stabilizing agent was added to the harvested plasma within 60 minutes. The samples were kept on ice and protected from sunlight (under yellow light). The stabilizing agent was ascorbic acid 200 mg/mL added in a proportion of 10% in plasma. The plasma samples were divided into two equal samples with each at least 0.2 ml (0.2*2 mL/sample) and transferred into labeled polypropylene micro-centrifuge tubes and stored frozen in a freezer set to maintain […] or lower until analyzed.
In CSF, about 0.1 mL/time point (50 μL*2 aliquots) of CSF were collected via the catheter implanted in the Cisterna Magna of conscious beagle dogs without any sedation. The procedures for CSF collection and handling were as follows: a polypropylene tube was weighed to accuracy of 0.1 mg (weight #1). CSF was collected and weighed the sample tube again (weight #2). Total CSF weight=weight #2−weight #1. The samples were kept on ice and protected from sunlight (under yellow light). Stabilizing agent was added within 60 minutes. The stabilizing agent was ascorbic acid 200 mg/mL added in a proportion of 10% in CSF. CSF samples were frozen on dry ice and stored at −60° C. or lower until bio-analysis.
For brain samples, different regions of brain were collected. Dogs were anesthetized and euthanasia according to SOP and collected the brain. The striatum, cortex and cerebellum were token rapidly and homogenized immediately (within 30 min) after being harvested. All the samples were stored at −60° C. or lower freezer finally.
For tissue homogenization, the homogenization solution was methanol:10 mM PBS=1:2 and set on dry ice. An empty conical tube was weighed, recorded, and set on dry ice.

[2] = Oxidation in liquid solutions; format: physicochemical; settings: in the liquid solutions
in vivo [3] = settings: male, SD, rat
Experimental: The vehicle for the IN and PO formulation contained “0.1% sodium metabisulfite solution”.
The animals were about 8 weeks old with body weights of 200-300 g on the dosing date. The animals were housed in a 12-hour light/12-hour dark cycle environment and had free access to food and water. All animals were fasted overnight and fed after 4 hours collection.
For group 2, plasma, CSF and brain samples were collected at 0.5 and 1 h post dose.
For Group 2 (PO dose, 10.56 mg/kg), blood, CSF and brain samples were collected from 3 mice at two time point: 0.5 h and 1 h post dose.
For plasma samples, about 200 μL of blood samples were collected from each animal via jugular vein. These blood samples were placed into the tubes containing K2EDTA, and centrifuged at 3000 g for 10 minutes in a 4° C. centrifuge. The completion time from collection was less than 30 min. The stabilizing agent of ascorbic acid at 200 mg/mL was added in a proportion of 10% in plasma. The plasma samples were stored in a freezer at −75±15° C. prior to analysis. The completion time from collection was less than 60 min.
For brain and CSF samples, The animals were fully exsanguinated with a rising concentration of CO2 gas prior to CSF and brain collection. […]
For brain collection. […] The actual concentration was the detected value multiplied by the dilution factor. […]

in vivo [4] = settings: male, C57BL/6J, mouse, po, 25 mg/kg; for concentration at […]: […] post last day (Day 4) dose
Experimental: Male C57BL/6J mice were purchased from Si Bei Fu Laboratory Animal Technology Co. Ltd (Beijing, China). The animals were about 8 weeks old with body weights of 20-30 g on the dosing date. The animals were housed in a 12-hour light/12-hour dark cycle environment and had free access to food and water. All animals were fasted overnight and fed after 4 hours collection.
The formulation was freshly made prior to use. Preparation of formulation for oral dosing are as follows:
For Group 1 and 2, blood, CSF and brain samples were collected from 3 mice at the following time points.
Plasma samples: About 30 μL or 300 μL of blood samples were collected from each animal via dorsal metatarsal vein or heart. These blood samples were placed into the tubes containing K2EDTA. And centrifugation at 3000 g for 10 minutes in a 4° C. centrifuge. The completion time from collection was less than 30 min. The stabilizing agent of ascorbic acid at 200 mg/mL was added in a proportion of 10% in plasma. The plasma samples were stored in a freezer at −75±15° C. prior to analysis. The completion time from collection was less than 60 min.
Brain and CSF Samples: The animals were fully exsanguinated with a rising concentration of CO2 gas prior to CSF and brain collection.
For CSF collection, make an incision by scissors on the neck of the rats, and the foramen magnum is exposed to the sight of scientist. Use a syringe with a venoclysis needle to sample the CSF, the tip of the needle is insert into the membrane of foramen magnum about 1-2 mm, and then pull the stopcock a small length of the syringe to make a negative pressure, then the CSF fluids to the tube. Watch the fluid in the tube and pull the stopcock slowly, when the amount of the CSF is enough, stop and split the needle and the syringe to ensure there is no negative pressure in the tube. Then cut off the needle and collect the CSF fluid. If we could see the blood in the tube, stop immediately, split the needle and the syringe, and then cut off between the blood and CSF to ensure there is no blood in the CSF fluid. Then collect the CSF fluid. The stabilizing agent of ascorbic acid at 200 mg/mL was added in a proportion of 10% in CSF. The completion time from collection was less than 60 min.
For brain collection. Brain samples were collected at adopted time point, and washed 3 times with cold saline, then dried with clean gauze and put into the weighed tube, quick frozen in ice box and kept at −75±15° C. All brain samples were weighted and homogenized with phosphate buffered saline (PBS) by brain weight (g) to PBS volume (mL) ratio 1:3 before analysis. The stabilizing agent of ascorbic acid at 200 mg/mL was added in a proportion of 10% in Brain homogenate. The actual concentration was the detected value multiplied by the dilution factor. Brain samples were collected at designed time point, quickly homogenized and kept at −75±15° C. The completion time from collection was less than 60 min.
Calibration standard working solutions were prepared at concentrations of 0.2, 0.5, 1, 2, 5, 10, 50, 100, 500, 1000 ng/mL by serial dilution of the standard stock solution. These QC samples were prepared on the day of analysis in the same way as calibration standards.
Plasma: The desired serial concentrations of working solutions were achieved by diluting stock solution of analyte with 50% acetonitrile in water solution. 10 μL of working solutions (0.1, 0.2, 0.5, 1, 2, 5, 10, 50, 100, 500, 1000 ng/mL) were added to 10 μL of the blank C57BL/6J Mice plasma to achieve calibration standards of 0.1˜1000 ng/mL (0.1, 0.2, 0.5, 1, 2, 5, 10, 50, 100, 500, 1000 ng/mL) in a total volume of 20 μL.

[5] = male, beagle, dog, in vivo, po, 10 mg/kg
[6] = male, beagle, dog, in vivo, po, 10 mg/kg, 0.5 h
[7] = single PO 10 mg/kg, 0.500 h, individual animal

CN1CCc2cccc3c2[C@@H]1Cc1ccc(O)c(O)c1-3
AUC(0-t) (in vivo [1]; [5]): 86.4 ng·h/mL | Tlast (in vivo [1]; [5]): 0.500 h | CSF concentration (in vivo [1]; [6]): 2.71 ng/mL | Striatum concentration (in vivo [1]; [6]): 145 ng/g | Kp (in vivo [1]; male, beagle, dog, in vivo, po, 10 mg/kg, AUClast ratio of CSF to plasma): 0.00888 ± 0.0031 | Cmax (in vivo [1]; male, beagle, dog, in vivo, po, 10 mg/kg, Cmax, plasma, single PO 10 mg/kg, individual animal): 265 ng/mL | MRT last (in vivo [1]; male, beagle, dog, in vivo, po, 10 mg/kg, MRTlast): 19.7 min | concentration at […] (in vivo [1]; male, beagle, dog, in vivo, po, 10 mg/kg, plasma concentration): 255 ng/mL | concentration at 0.033 h (in vivo [1]; male, beagle, dog, in vivo, po, 10 mg/kg, plasma concentration, single PO 10 mg/kg, 119 s, individual animal): 2.92 ng/mL | Kp at 0.5 h (in vivo [1]; male, beagle, dog, in vivo, po, 10 mg/kg, ratio of cerebellum/plasma): 0.505 ± 0.117 | Kp at 0.5 h (in vivo [1]; male, beagle, dog, in vivo, po, 10 mg/kg, ratio of cortex/plasma): 0.704 ± 0.184 | Kp at 0.5 h (in vivo [1]; male, beagle, dog, in vivo, po, 10 mg/kg, ratio of striatum/plasma): 0.666 ± 0.0544 | Cerebellum concentration (in vivo [1]; [7]): 129 ng/g | Cortex concentration (in vivo [1]; [7]): 124 ng/g | Striatum concentration (in vivo [1]; [7]): 137 ng/g | oxidation [2]: significant oxidation | Kp at 0.5 h (in vivo [3]): 0.233 | concentration at 0.5 h (in vivo [3]): 299 ng/g | Tmax (in vivo [4]): 6 min | AUC(0-t) (in vivo [4]; AUClast, plasma, Mean, male C57BL/6J mice, single oral dose 25 mg/kg): 857 ng·h/mL | concentration at 0.5 h (in vivo [4]; Brain concentration, Mean): 65.7 ng/g | concentration at 1 h (in vivo [4]; Brain concentration, Mean): 22.6 ng/g | concentration at 2 h (in vivo [4]; Brain concentration, Mean): 16.8 ng/g | concentration at 3 h (in vivo [4]; Brain concentration, Mean): 11.5 ng/g | concentration at […] (in vivo [4]; Brain concentration, Mean, male C57BL/6J mice, repeated oral dose 25 mg/kg): 2330 ng/g | concentration at 2 h (in vivo [4]; Brain concentration, male C57BL/6J mice, repeated oral dose 25 mg/kg, 2 h post last day (Day 4) dose, G3): 10.9 ng/g | concentration at […] (in vivo [4]; Brain concentration, male C57BL/6J mice, repeated oral dose 25 mg/kg, G3): 1080 ng/g | concentration at 1 h (in vivo [4]; CSF concentration): 3.71 ng/mL | concentration at 2 h (in vivo [4]; CSF concentration): 3.08 ng/mL | concentration at 4 h (in vivo [4]; CSF concentration): 4.08 ng/mL | concentration at 0.5 h (in vivo [4]; CSF concentration, Mean): 7.7 ng/mL | concentration at 1 h (in vivo [4]; CSF concentration, Mean): 3.32 ng/mL | concentration at 2 h (in vivo [4]; CSF concentration, Mean): 3.56 ng/mL | concentration at 4 h (in vivo [4]; CSF concentration, Mean): 3.42 ng/mL | concentration at […] (in vivo [4]; CSF concentration, Mean, male C57BL/6J mice, repeated oral dose 25 mg/kg): 50.2 ng/mL | concentration at […] (in vivo [4]; CSF concentration, male C57BL/6J mice, repeated oral dose 25 mg/kg, G2): 178 ng/mL | concentration at 1 h (in vivo [4]; CSF concentration, male C57BL/6J mice, single oral dose 25 mg/kg, 1 h, G3): 3.18 ng/mL | Cmax (in vivo [4]): 200 ng/mL | Cmax (in vivo [4]; CSF, Mean, male C57BL/6J mice, single oral dose 25 mg/kg): 56.4 ng/mL | Cmax (in vivo [4]; brain, Mean, male C57BL/6J mice, last day (Day 4) of repeated oral dose 25 mg/kg): 2330 ng/mL | Cmax (in vivo [4]; brain, Mean, male C57BL/6J mice, single oral dose 25 mg/kg): 729 ng/mL | Cmax (in vivo [4]; plasma, Mean, male C57BL/6J mice, last day (Day 4) of repeated oral dose 25 mg/kg): 1360 ng/mL | Cmax (in vivo [4]; plasma, Mean, male C57BL/6J mice, single oral dose 25 mg/kg): 1150 ng/mL | concentration at 2 h (in vivo [4]; Plasma concentration): 100 ng/mL | concentration at 8 h (in vivo [4]; Plasma concentration): 0.765 ng/mL | concentration at 12 h (in vivo [4]; Plasma concentration): 0.198 ng/mL | concentration at 0.5 h (in vivo [4]; Plasma concentration, Mean): 528 ng/mL | concentration at 1 h (in vivo [4]; Plasma concentration, Mean): 235 ng/mL | concentration at 2 h (in vivo [4]; Plasma concentration, Mean): 74.4 ng/mL | concentration at 3 h (in vivo [4]; Plasma concentration, Mean): 72.4 ng/mL | concentration at 8 h (in vivo [4]; Plasma concentration, Mean): 0.87 ng/mL | concentration at 12 h (in vivo [4]; Plasma concentration, Mean): 0.174 ng/mL | concentration at […] (in vivo [4]; Plasma concentration, Mean, male C57BL/6J mice, repeated oral dose 25 mg/kg): 1360 ng/mL | concentration at 2 h (in vivo [4]; Plasma concentration, Mean, male C57BL/6J mice, single oral dose 25 mg/kg, 2 h): 122 ng/mL | concentration at 1 h (in vivo [4]; Plasma concentration, male C57BL/6J mice, repeated oral dose 25 mg/kg, 1 h post last day (Day 4) dose, G1): 112 ng/mL | concentration at 3 h (in vivo [4]; Plasma concentration, male C57BL/6J mice, repeated oral dose 25 mg/kg, 3 h post last day (Day 4) dose, G3): 73.1 ng/mL | concentration at 8 h (in vivo [4]; Plasma concentration, male C57BL/6J mice, repeated oral dose 25 mg/kg, 8 h post last day (Day 4) dose, G3): 1.24 ng/mL | concentration at […] (in vivo [4]; Plasma concentration, male C57BL/6J mice, repeated oral dose 25 mg/kg, G1): 1460 ng/mL | concentration at […] (in vivo [4]; Plasma concentration, male C57BL/6J mice, repeated oral dose 25 mg/kg, G2): 1520 ng/mL | concentration at […] (in vivo [4]; Plasma concentration, male C57BL/6J mice, repeated oral dose 25 mg/kg, G3): 1110 ng/mL | concentration at 1 h (in vivo [4]; Plasma concentration, male C57BL/6J mice, single oral dose 25 mg/kg, 1 h, G2): 162 ng/mL | concentration at 2 h (in vivo [4]; Plasma concentration, male C57BL/6J mice, single oral dose 25 mg/kg, 2 h, G2): 138 ng/mL
